Test results reported in ChEMBL document CHEMBL5528037 (J Med Chem, 2024).
Activity calls are given as the source filed them. The calls are words filed in the database; no cut-off is given here.

Tests used:
[1] = cells; details: Mus musculus, Ba/F3 EGFR-L858R, 72 h
Description: Antiproliferative activity against mouse Ba/F3 EGFR-L858R cells assessed as inhibition of cell proliferation measured after 3 days by CellTiter-Glo assay

[2] = tested on: BaF3; assay: cells; details: Mus musculus, BaF3, 72 h
[3] = molecular target: Epidermal growth factor receptor (Homo sapiens, UniProt P00533, L858R); assay: Inhibition of EGFR L858R mutant (unknown origin) harboring cysteine at alphaD-1 position by LanthaScreen assay
[4] = molecular target: T1, Tyrosine-protein kinase JAK3 (Homo sapiens, UniProt P52333); assay: Inhibition of JAK3 (unknown origin) harboring cysteine at alphaD-1 position by LanthaScreen assay
T1 sequence (P52333 whole entry): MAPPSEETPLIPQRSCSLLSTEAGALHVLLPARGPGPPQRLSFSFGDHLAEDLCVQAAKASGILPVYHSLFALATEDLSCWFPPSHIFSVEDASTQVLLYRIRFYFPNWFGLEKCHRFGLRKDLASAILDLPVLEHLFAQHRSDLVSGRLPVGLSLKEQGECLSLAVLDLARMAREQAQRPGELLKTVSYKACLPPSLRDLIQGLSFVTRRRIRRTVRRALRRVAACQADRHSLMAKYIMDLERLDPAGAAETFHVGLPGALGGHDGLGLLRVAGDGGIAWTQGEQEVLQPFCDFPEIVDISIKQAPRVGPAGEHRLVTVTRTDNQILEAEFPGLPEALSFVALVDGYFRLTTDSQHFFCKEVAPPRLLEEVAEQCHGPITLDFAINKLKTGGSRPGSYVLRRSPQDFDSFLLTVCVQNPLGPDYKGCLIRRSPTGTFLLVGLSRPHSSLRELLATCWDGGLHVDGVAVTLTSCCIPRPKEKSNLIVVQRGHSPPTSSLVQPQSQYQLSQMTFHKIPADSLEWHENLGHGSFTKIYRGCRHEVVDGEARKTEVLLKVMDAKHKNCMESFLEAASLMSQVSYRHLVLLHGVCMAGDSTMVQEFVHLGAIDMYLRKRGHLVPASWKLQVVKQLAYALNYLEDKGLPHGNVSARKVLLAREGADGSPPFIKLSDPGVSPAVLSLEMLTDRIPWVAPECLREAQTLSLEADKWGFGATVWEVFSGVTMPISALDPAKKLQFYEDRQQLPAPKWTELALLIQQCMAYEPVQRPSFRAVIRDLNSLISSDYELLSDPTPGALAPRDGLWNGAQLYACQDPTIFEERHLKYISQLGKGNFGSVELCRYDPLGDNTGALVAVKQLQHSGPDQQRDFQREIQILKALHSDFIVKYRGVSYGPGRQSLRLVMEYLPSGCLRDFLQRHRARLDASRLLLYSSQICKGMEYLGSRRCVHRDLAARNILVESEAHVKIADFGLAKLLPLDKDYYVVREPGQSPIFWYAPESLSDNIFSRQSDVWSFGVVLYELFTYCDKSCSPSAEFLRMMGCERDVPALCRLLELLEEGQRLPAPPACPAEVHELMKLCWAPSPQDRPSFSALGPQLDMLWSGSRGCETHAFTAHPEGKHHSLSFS

[5] = molecular target: T2, Tyrosine-protein kinase BTK (Homo sapiens, UniProt Q06187); assay: Inhibition of BTK (unknown origin) harboring cysteine at alphaD-1 position by LanthaScreen assay
[6] = molecular target: T3, Tyrosine-protein kinase Blk (Homo sapiens, UniProt P51451); assay: Inhibition of BLK (unknown origin) harboring cysteine at alphaD-1 position by LanthaScreen assay
[7] = molecular target: T3, Tyrosine-protein kinase Blk; assay: Displacement of K-4 tracer from wild type BLK in HEK293T cells expressing NanoLuc preincubated for 3 hrs followed by tracer addition and measured after 1 hr by NanoBRET analysis; format: cell-based
[8] = molecular target: T2, Tyrosine-protein kinase BTK; assay: Displacement of K-10 tracer from wild type BTK in HEK293T cells expressing NanoLuc preincubated for 3 hrs followed by tracer addition and measured after 1 hr by NanoBRET analysis; format: cell-based
[9] = tested on: BaF3; assay: Inhibition of biotinylated osimertinib binding to EGFR L858R mutant in mouse BaF3 cells at 0.2 to 10 uM preincubated for 3 hrs followed by biotinylated osimertinib addition and incubated overnight by competitive pulldown based Western blot analysis; format: cell-based; details: dose 0.2-10 µM
[10] = molecular target: T2, Tyrosine-protein kinase BTK; assay: Inhibition of biotinylated ibrutinib binding to BTK in human MINO cells at 0.2 to 10 uM preincubated for 3.5 hrs followed by biotinylated ibrutinib addition and incubated overnight by competitive pulldown based Western blot analysis; format: cell-based; details: dose 0.2-10 µM
[11] = molecular target: Epidermal growth factor receptor (Mus musculus) (UniProt Q01279); assay: Inhibition of EGFR phosphorylation at Y1068 residue in mouse Ba/F3 EGFR-L858R cells at 0.2 to 10 uM incubated for 6 hrs by Western blot analysis; format: cell-based; details: dose 0.2-10 µM
[12] = molecular target: Mitogen-activated protein kinase 1 and 3 (ERK2 and ERK1) (Mus musculus) (UniProt P63085+Q63844); assay: Inhibition of ERK1/2 phosphorylation at T202/Y204 residues in mouse Ba/F3 EGFR-L858R cells at 0.2 to 10 uM incubated for 6 hrs by Western blot analysis; format: cell-based; details: dose 0.2-10 µM
[13] = molecular target: RAC-alpha serine/threonine-protein kinase (Mus musculus) (UniProt P31750); assay: Inhibition of AKT phosphorylation at S473 residue in mouse Ba/F3 EGFR-L858R cells at 0.2 to 10 uM incubated for 6 hrs by Western blot analysis; format: cell-based; details: dose 0.2-10 µM
[14] = molecular target: Epidermal growth factor receptor (Homo sapiens) (UniProt P00533); assay: Binding affinity to N-terminal protease cleavable His-GST tagged wild type human EGFR (696 to 1022 residues) expressed as baculovirus infected Sf9 cells assessed as mass shift at 10 fold molar excess incubated for 2 hrs by LC-MS/MS analysis
[15] = tested on: Epidermal growth factor receptor (Homo sapiens), P00533 [L858R,T790M]; assay: Binding affinity to Cys797 residue of trypsin digested EGFR L858R/T790M mutant (unknown origin) by Nano-LC-MS/MS analysis
[16] = molecular target: T2, Tyrosine-protein kinase BTK; assay: Binding affinity to human BTK harboring cysteine at alphaD-1 position at 10 uM by Kinomescan analysis
[17] = molecular target: T4, Tyrosine-protein kinase JAK3 (Homo sapiens) (UniProt P52333); assay: Binding affinity to human JAK3 JH1 domain harboring cysteine at alphaD-1 position at 10 uM by Kinomescan analysis
T4 sequence (whole entry): T1 sequence (P52333 whole entry)

[18] = molecular target: Epidermal growth factor receptor (Homo sapiens) (UniProt P00533); assay: Binding affinity to human EGFR harboring cysteine at alphaD-1 position at 10 uM by Kinomescan analysis
[19] = molecular target: T5, Dual specificity mitogen-activated protein kinase kinase 7 (Homo sapiens) (UniProt O14733); assay: Binding affinity to human MKK7 harboring cysteine at alphaD-1 position at 10 uM by Kinomescan analysis
T5 sequence (whole entry): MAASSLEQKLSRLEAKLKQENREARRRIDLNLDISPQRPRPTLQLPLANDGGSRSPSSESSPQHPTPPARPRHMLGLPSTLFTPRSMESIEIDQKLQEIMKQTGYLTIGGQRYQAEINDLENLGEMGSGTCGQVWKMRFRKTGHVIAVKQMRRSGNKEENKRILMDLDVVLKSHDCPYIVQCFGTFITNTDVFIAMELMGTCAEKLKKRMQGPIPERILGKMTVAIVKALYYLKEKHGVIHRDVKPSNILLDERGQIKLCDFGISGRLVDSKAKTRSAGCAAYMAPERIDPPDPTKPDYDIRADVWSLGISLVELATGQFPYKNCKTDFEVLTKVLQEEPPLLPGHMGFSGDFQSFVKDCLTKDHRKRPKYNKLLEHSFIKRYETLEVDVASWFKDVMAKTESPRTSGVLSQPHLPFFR

[20] = molecular target: T6, Dual specificity mitogen-activated protein kinase kinase 5 (Homo sapiens, UniProt Q13163); assay: Inhibition of MEK5 (unknown origin) by LanthaScreen assay
T6 sequence (Q13163 whole entry): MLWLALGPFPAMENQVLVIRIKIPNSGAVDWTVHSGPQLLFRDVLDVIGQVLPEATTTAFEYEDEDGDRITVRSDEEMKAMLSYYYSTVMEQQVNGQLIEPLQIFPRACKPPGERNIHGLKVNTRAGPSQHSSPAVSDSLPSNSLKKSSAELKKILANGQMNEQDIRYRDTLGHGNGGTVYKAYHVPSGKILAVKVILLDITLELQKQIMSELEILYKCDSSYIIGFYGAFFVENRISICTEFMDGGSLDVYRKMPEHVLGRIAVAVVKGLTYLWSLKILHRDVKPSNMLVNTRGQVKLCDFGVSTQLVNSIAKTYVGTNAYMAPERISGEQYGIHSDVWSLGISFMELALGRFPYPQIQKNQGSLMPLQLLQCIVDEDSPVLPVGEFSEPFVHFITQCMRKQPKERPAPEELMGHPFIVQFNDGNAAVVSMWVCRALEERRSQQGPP

[21] = molecular target: T2, Tyrosine-protein kinase BTK; assay: Binding affinity to BTK (unknown origin) assessed as covalent bond formation by measuring cysteine 481-labeling by mass spectrometry analysis relative to control
[22] = molecular target: T4, Tyrosine-protein kinase JAK3 (Homo sapiens); assay: Binding affinity to JAK3 JH1 domain (unknown origin) assessed as covalent bond formation by measuring cysteine 909-labeling by mass spectrometry analysis relative to control
[23] = tested on: Tyrosine-protein kinase BTK (Homo sapiens), Q06187 [C481S]; assay: Displacement of K-10 tracer from BTK C481S mutant in HEK293T cells expressing NanoLuc preincubated for 3 hrs followed by tracer addition and measured after 1 hr by NanoBRET analysis; format: cell-based; details: time 4.0 hrs
[24] = tested on: HEK293T; assay: Displacement of K-4 tracer from BLK C319S mutant in HEK293T cells expressing NanoLuc preincubated for 3 hrs followed by tracer addition and measured after 1 hr by NanoBRET analysis; format: cell-based; details: Homo sapiens, time 4.0 hrs
[25] = tested on: BaF3; assay: Inhibition of biotinylated osimertinib binding to EGFR L858R mutant in mouse BaF3 cells preincubated for 3 hrs followed by biotinylated osimertinib addition and incubated overnight by competitive pulldown based Western blot analysis; format: cell-based; details: dose 0.2-10 µM

T2 sequence (Q06187 whole entry): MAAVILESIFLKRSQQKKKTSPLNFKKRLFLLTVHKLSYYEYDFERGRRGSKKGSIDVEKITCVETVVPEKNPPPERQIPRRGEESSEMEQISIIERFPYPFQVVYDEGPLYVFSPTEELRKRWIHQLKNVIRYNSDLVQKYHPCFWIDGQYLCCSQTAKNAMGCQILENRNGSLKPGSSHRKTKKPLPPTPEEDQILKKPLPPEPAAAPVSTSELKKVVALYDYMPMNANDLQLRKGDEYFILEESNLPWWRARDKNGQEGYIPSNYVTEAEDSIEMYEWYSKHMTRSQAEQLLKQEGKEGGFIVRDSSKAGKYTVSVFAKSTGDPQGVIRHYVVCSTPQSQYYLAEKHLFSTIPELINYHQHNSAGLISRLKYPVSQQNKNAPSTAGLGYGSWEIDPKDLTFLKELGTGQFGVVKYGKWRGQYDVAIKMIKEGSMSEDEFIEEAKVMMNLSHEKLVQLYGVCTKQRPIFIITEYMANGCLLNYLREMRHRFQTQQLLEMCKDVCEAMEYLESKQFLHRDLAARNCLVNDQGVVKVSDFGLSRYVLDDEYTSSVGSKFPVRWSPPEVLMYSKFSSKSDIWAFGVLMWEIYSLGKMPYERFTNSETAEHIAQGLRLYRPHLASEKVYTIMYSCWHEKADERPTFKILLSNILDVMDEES
Mitogen-activated protein kinase 1 and 3 (ERK2 and ERK1) (Mus musculus), sequence (P63085 whole entry, looked up): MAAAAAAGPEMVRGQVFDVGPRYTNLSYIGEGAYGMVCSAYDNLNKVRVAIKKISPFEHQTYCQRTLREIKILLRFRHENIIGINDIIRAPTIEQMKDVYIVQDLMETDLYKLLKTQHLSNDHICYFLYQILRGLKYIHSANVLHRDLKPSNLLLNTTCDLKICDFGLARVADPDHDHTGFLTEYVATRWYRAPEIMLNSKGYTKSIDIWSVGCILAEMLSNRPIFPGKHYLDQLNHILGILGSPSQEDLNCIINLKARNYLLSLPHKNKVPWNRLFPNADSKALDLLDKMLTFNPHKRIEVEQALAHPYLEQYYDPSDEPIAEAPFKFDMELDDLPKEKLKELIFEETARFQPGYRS
Mitogen-activated protein kinase 1 and 3 (ERK2 and ERK1) (Mus musculus), sequence (Q63844 whole entry, looked up): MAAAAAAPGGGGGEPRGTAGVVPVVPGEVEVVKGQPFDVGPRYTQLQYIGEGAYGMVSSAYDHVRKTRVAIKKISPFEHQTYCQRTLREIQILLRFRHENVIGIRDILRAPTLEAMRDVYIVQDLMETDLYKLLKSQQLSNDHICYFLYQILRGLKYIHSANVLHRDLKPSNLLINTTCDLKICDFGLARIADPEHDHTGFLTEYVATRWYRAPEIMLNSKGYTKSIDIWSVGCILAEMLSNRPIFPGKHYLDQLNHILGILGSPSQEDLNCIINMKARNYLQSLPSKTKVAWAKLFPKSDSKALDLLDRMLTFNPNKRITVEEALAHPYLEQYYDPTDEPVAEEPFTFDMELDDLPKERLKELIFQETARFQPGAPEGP
RAC-alpha serine/threonine-protein kinase (Mus musculus), sequence (P31750 whole entry, the tested form may be a part): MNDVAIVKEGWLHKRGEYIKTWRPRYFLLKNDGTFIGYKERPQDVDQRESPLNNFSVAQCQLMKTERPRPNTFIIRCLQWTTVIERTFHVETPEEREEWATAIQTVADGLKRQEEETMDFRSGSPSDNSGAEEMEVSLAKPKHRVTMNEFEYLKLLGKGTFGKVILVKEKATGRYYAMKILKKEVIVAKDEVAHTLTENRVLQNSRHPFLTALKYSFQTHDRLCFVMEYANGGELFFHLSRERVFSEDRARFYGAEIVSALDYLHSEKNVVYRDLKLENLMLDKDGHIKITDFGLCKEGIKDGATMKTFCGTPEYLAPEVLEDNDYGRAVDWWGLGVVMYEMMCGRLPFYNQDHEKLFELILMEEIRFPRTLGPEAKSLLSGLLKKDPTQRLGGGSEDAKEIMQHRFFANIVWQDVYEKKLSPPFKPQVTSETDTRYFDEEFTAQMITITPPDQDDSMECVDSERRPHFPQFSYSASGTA
T3 sequence (P51451 whole entry): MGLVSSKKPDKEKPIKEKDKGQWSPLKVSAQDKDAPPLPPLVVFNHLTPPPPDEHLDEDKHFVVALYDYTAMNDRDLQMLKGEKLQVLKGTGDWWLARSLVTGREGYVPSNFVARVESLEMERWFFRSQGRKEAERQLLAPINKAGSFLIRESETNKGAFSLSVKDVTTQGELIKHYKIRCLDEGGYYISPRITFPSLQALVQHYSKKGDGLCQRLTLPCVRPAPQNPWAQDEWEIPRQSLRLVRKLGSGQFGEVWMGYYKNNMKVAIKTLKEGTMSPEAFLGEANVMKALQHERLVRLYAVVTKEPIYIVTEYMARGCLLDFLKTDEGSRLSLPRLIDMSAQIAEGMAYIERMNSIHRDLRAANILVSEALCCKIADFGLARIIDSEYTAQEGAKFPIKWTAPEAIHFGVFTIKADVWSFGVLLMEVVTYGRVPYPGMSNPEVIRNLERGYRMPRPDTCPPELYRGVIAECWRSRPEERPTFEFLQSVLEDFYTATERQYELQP
Epidermal growth factor receptor (Mus musculus), sequence (Q01279 whole entry): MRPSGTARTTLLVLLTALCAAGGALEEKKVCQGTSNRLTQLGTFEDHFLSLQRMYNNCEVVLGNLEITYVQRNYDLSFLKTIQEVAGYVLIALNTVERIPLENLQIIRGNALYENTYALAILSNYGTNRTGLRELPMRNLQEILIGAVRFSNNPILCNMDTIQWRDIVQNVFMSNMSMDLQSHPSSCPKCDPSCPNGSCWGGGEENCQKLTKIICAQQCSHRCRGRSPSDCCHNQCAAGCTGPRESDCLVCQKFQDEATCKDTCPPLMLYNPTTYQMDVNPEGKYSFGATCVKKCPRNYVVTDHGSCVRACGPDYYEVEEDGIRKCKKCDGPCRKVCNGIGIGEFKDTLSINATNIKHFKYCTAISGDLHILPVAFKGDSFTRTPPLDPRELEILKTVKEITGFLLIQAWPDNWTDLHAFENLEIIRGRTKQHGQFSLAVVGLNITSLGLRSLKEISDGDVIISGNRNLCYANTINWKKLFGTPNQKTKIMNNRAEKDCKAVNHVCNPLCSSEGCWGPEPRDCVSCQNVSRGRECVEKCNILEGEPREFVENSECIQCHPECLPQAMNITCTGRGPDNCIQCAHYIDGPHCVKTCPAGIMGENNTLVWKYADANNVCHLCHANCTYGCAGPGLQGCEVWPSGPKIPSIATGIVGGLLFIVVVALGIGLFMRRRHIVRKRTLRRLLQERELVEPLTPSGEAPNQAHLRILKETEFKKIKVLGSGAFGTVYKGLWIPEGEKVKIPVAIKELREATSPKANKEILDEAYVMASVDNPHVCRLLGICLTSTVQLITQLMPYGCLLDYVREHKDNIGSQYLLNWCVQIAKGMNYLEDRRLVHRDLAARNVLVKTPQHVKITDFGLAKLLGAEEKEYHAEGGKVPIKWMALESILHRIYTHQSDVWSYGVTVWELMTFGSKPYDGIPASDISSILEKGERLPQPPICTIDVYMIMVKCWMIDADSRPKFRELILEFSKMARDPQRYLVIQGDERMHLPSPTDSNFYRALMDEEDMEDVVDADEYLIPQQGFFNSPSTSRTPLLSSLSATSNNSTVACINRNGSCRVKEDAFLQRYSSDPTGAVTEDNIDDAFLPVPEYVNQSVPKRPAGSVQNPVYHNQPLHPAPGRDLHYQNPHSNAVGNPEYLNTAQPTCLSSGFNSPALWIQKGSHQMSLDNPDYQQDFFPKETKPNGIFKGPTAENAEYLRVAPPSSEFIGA
Tyrosine-protein kinase BTK (Homo sapiens), Q06187 [C481S], sequence (Q06187 whole entry C481S): as the sequence (Q06187 whole entry) above, with C481S counted along it

| SMILES | IC50 [1] [µM] | IC50 [2] [µM] | IC50 [3] [µM] | IC50 [4] [µM] | IC50 [5] [µM] | IC50 [8] [µM] | inhibition [10] | inhibition [11] | inhibition [12] | inhibition [13] | also measured |
| --- | --- | --- | --- | --- | --- | --- | --- | --- | --- | --- | --- |
| C=CC(=O)N1CCC(Oc2nn(C(C)(C)C)c3ncnc(N)c23)C1 (centres undefined) | 2.41 | 5.99 |  |  |  |  |  |  |  |  |  |
| C=CC(=O)Nc1cc(Nc2nccc(-c3cn(C)c4ccccc34)n2)c(OC)cc1N(C)CCN(C)C [OSIMERTINIB] | 0.0024 | 0.019 |  |  |  |  |  |  |  |  |  |
| C=CC(=O)N1CCCC(Oc2nn(C(C)(C)C)c3ncnc(N)c23)C1 (centres undefined) | 10.6 | > 10 |  |  |  |  |  |  |  |  |  |
| CCC(=O)N1CC(Oc2nn(C(C)(C)C)c3ncnc(N)c23)C1 |  |  | > 10 | > 10 | > 10 | > 30 | inactive | inactive | inactive | inactive | IC50 [6]: > 10 µM; IC50 [7]: > 30 µM; inhibition [9]: inactive |
| C=CC(=O)N1CC(Oc2nn(C(C)(C)C)c3ncnc(N)c23)C1 |  |  | 0.242 | 0.0592 | 0.105 | 0.865 | Active | Active | Active | Active | Activity [14]: Active; Activity [15]: Active; Activity [16]: Active; Activity [17]: Active; Activity [18]: Active; Activity [19]: Active; IC50 [20]: > 10 µM; Activity [21]: 80%; Activity [22]: 60%; Activity [23]: inactive; Activity [24]: inactive; inhibition [25]: Dose-Dependent Effect |
| C=CC(=O)N1CCC(Oc2nn(C(C)(C)C)c3ncnc(N)c23)CC1 | 0.604 | 3.62 |  |  |  |  |  |  |  |  |  |
